Patent US12077503B2, “Substituted cyclic amides and their use as herbicides” (FMC CORPORATION, priority 2015, dated 2024)

Key:
Type in all cases: in vivo
[1] = system: blackgrass (Alopecurus myosuroides); assay: Test A postemergence
Summary of the method: (§1)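 Compounds were formulated in a non-phytotoxic solvent mixture with surfactant and applied as a preemergence directed soil spray after seeding, or sprayed postemergence over plants 2 to 10 cm tall at the one- to two-leaf stage. Evaluation after about 10 d compared treated with untreated controls, using a scale from 0 (no effect) to 100 (complete control).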

[2] = system: barnyardgrass (Echinochloa crus-galli); assay: Test A postemergence
Summary of the method: as §1

[3] = system: corn (Zea mays); assay: Test A postemergence
Summary of the method: as §1

[4] = system: wheat (Triticum aestivum); assay: Test A postemergence
Summary of the method: as §1

[5] = system: Kochia (Kochia scoparia); assay: Test A postemergence
Summary of the method: as §1

[6] = system: ryegrass, Italian (Italian ryegrass, Lolium multiflorum); assay: Test A postemergence
Summary of the method: as §1

[7] = system: ragweed (common ragweed, Ambrosia elatior); assay: Test A postemergence
Summary of the method: as §1

[8] = system: Galium (catchweed bedstraw, Galium aparine); assay: Test A postemergence
Summary of the method: as §1

[9] = system: pigweed (Amaranthus retroflexus); assay: Test A postemergence
Summary of the method: as §1

[10] = system: giant foxtail (Setaria faberii); assay: Test A postemergence
Summary of the method: as §1

[11] = system: lambsquarters (Chenopodium album); assay: Test C preemergence; conditions: for Plant response rating (scale of 0 to 100), Lambsquarters: 31 g ai/ha, 0 is no effect, 100 is complete control; for Plant response rating, Lambsquarters: scale 0 to 100, 0 no effect, 100 complete control
From the text: Seeds of plant species selected from blackgrass (Alopecurus myosuroides), ryegrass, Italian (Italian ryegrass, Lolium multiflorum), wheat (winter wheat, Triticum aestivum), Galium (catchweed bedstraw, Galium aparine), corn (Zea mays), crabgrass, large (large crabgrass, Digitaria sanguinalis), foxtail, giant (giant foxtail, Setaria faberii), johnsongrass (Sorghum halepense), lambsquarters (Chenopodium album), morningglory (Ipomoea coccinea), nutsedge, yellow (yellow nutsedge, Cyperus esculentus), pigweed (Amaranthus retroflexus), ragweed (common ragweed, Ambrosia elatior), soybean (Glycine max), barnyardgrass (Echinochloa crus-galli), oilseed rape (Brassica napus), waterhemp (common waterhemp, Amaranthus rudis) and velvetleaf (Abutilon theophrasti) were planted into a blend of loam soil and sand and treated preemergence with test chemicals formulated in a non-phytotoxic solvent mixture which included a surfactant.
At the same time, plants selected from these crop and weed species and also Kochia (Kochia scoparia), oat, wild (wild oat, Avena fatua), and chickweed (common chickweed, Stellaria media) were planted in pots containing Sunshine Redi-Earth® planting medium comprising spaghnum peat moss, vermiculite, starter nutrients and dolomitic limestone and treated with postemergence applications of test chemicals formulated in the same manner. Plants ranged in height from 2 to 18 cm (1- to 4-leaf stage) for postemergence treatments. Treated plants and controls were maintained in a greenhouse for 13 to 15 d, after which time all species were compared to controls and visually evaluated. Plant response ratings, summarized in Table C, are based on a scale of 0 to 100 where 0 is no effect and 100 is complete control. A dash (-) response means no test result.

[12] = system: barnyardgrass (Echinochloa crus-galli); assay: Test A preemergence
Summary of the method: as §1

[13] = system: Kochia (Kochia scoparia); assay: Test A preemergence
Summary of the method: as §1

[14] = system: ryegrass, Italian (Italian ryegrass, Lolium multiflorum); assay: Test A preemergence
Summary of the method: as §1

[15] = system: ragweed (common ragweed, Ambrosia elatior); assay: Test A preemergence
Summary of the method: as §1

[16] = system: pigweed (Amaranthus retroflexus); assay: Test A preemergence
[17] = system: giant foxtail (Setaria faberii); assay: Test A preemergence
Summary of the method: as §1

[18] = system: rice (Oryra sativa); assay: Test B flooded paddy test; conditions: Flood, 250 g ai/ha; 0 to 100 scale where 0 is no effect and 100 is complete control; 13 to 15 d
Summary of the method: (§2)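 Plants at 2-leaf stage flooded to 3 cm above soil, with compounds applied directly to paddy water and that depth maintained. Plants kept in greenhouse 13–15 d. Visual rating versus controls on a 0 (no effect) to 100 (complete control) scale.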

[19] = system: barnyardgrass (Echinochloa crus-galli); assay: Test B flooded paddy test; conditions: Flood, 250 g ai/ha; 0 to 100 scale where 0 is no effect and 100 is complete control; 13 to 15 d
Summary of the method: as §2

[20] = system: ducksalad (Heteranthera limosa); assay: Test B flooded paddy test; conditions: Flood, 250 g ai/ha; 0 to 100 scale where 0 is no effect and 100 is complete control; 13 to 15 d
Summary of the method: as §2

[21] = system: sedge, umbrella (small-flower umbrella sedge, Cyperus difformis); assay: Test B flooded paddy test; conditions: Flood, 250 g ai/ha; 0 to 100 scale where 0 is no effect and 100 is complete control; 13 to 15 d
Summary of the method: as §2

[22] = 125 g ai/ha, postemergence, visual rating after approx. 10 d, 0 to 100 scale (0 no effect, 100 complete control)
[23] = 500 g ai/ha, postemergence, visual injury, 0 to 100 scale (0 no effect, 100 complete control), approx. 10 d
[24] = 125 g ai/ha, Preemergence, visual injury after approximately 10 d, 0 to 100 scale where 0 is no effect and 100 is complete control
[25] = 500 g ai/ha, preemergence, 0 to 100 scale, 0 = no effect, 100 = complete control
[26] = Postemergence, 500 g ai/ha, 0 to 100 scale where 0 is no effect and 100 is complete control

Structure (SMILES)	Plant response rating, Blackgrass [1, 22]	Plant response rating, Barnyardgrass [2, 22]	Plant response rating, Corn [3, 22]	Plant response rating, Wheat [4, 22]	Plant response rating, Kochia [5, 22]	Plant response rating, Ryegrass, Italian [6, 22]	Plant response rating, Ragweed [7, 22]	Plant response rating, Galium [8, 22]	Plant response rating, Pigweed [9, 22]	Plant response rating, Foxtail, Giant [10, 22]	Plant response rating (scale of 0 to 100), Lambsquarters [11]	Plant response rating, Lambsquarters ([11]; 62 g ai/ha)	Plant response rating, Lambsquarters ([11]; 125 g ai/ha)	Plant response rating, Lambsquarters ([11]; 250 g ai/ha)	Plant response rating, Barnyardgrass [12, 24]	Plant response rating, Barnyardgrass [12, 25]	Plant response rating, Kochia [13, 24]	Plant response rating, Kochia [13, 25]	Plant response rating, Ryegrass, Italian [14, 24]	Plant response rating, Ryegrass, Italian [14, 25]	also measured
CN1CC(c2cc(F)cc(F)c2)C(C(=O)Nc2ccc(F)c(F)c2F)C1=O (stereo not drawn) [Compound 646]	70	90	70	40	60	60	0	40	20	90	40	60	75	80	90	90	60	70	60	90	Plant response rating, Blackgrass [1, 23]: 80; Plant response rating, Barnyardgrass [2, 23]: 90; Plant response rating, Corn [3, 23]: 80; Plant response rating, Wheat [4, 23]: 70; Plant response rating, Kochia [5, 23]: 70; Plant response rating, Ryegrass, Italian [6, 23]: 70; Plant response rating, Ragweed [7, 23]: 40; Plant response rating, Galium [8, 23]: 50; Plant response rating, Pigweed [9, 23]: 20; Plant response rating, Foxtail, Giant [10, 23]: 90; Plant response rating, Ragweed [15, 24]: 60; Plant response rating, Ragweed [15, 25]: 70; Plant response rating, Pigweed [16, 24]: 60; Plant response rating, Pigweed [16, 25]: 70; Plant response rating, Foxtail, Giant [17, 24]: 90; Plant response rating, Foxtail, Giant [17, 25]: 100; Plant response rating, Rice [18]: 25; Plant response rating, Barnyardgrass [19]: 80; Plant response rating, Ducksalad [20]: 98; Plant response rating, Sedge, Umbrella [21]: 0
CN1CC(c2cccc(OC(F)F)c2)C(C(=O)Nc2cccc(F)c2F)C1=O (stereo not drawn) [Compound 616]	50	90	70	60	50	50	0	60	40	90	25	35	70	60	90	90	70	80	80	90	Plant response rating, Blackgrass [1, 26]: 60; Plant response rating, Barnyardgrass [2, 26]: 90; Plant response rating, Corn [3, 26]: 80; Plant response rating, Wheat [4, 26]: 70; Plant response rating, Kochia [5, 26]: 70; Plant response rating, Ryegrass, Italian [6, 26]: 80; Plant response rating, Ragweed [7, 26]: 20; Plant response rating, Galium [8, 26]: 70; Plant response rating, Pigweed [9, 26]: 60; Plant response rating, Foxtail, Giant [10, 26]: 90; Plant response rating, Ragweed [15, 24]: 80; Plant response rating, Ragweed [15, 25]: 80; Plant response rating, Pigweed [16, 24]: 80; Plant response rating, Pigweed [16, 25]: 90; Plant response rating, Foxtail, Giant [17, 24]: 90; Plant response rating, Foxtail, Giant [17, 25]: 100; Plant response rating, Rice [18]: 10; Plant response rating, Barnyardgrass [19]: 70; Plant response rating, Ducksalad [20]: 100; Plant response rating, Sedge, Umbrella [21]: 0
CN1CC(c2ccc(F)c(F)c2)C(C(=O)Nc2ccccc2C(F)(F)F)C1=O (stereo not drawn) [Compound 641]	30	90	0	0	0	0	0	40	0	90	0	40	40	65	90	0	20	50	20	60	Plant response rating, Blackgrass [1, 23]: 60; Plant response rating, Barnyardgrass [2, 23]: 90; Plant response rating, Corn [3, 23]: 50; Plant response rating, Wheat [4, 23]: 30; Plant response rating, Kochia [5, 23]: 20; Plant response rating, Ryegrass, Italian [6, 23]: 40; Plant response rating, Ragweed [7, 23]: 20; Plant response rating, Galium [8, 23]: 50; Plant response rating, Pigweed [9, 23]: 20; Plant response rating, Foxtail, Giant [10, 23]: 90; Plant response rating, Ragweed [15, 24]: 0; Plant response rating, Ragweed [15, 25]: 60; Plant response rating, Pigweed [16, 24]: 20; Plant response rating, Pigweed [16, 25]: 50; Plant response rating, Foxtail, Giant [17, 24]: 90; Plant response rating, Foxtail, Giant [17, 25]: 100; Plant response rating, Rice [18]: 0; Plant response rating, Barnyardgrass [19]: 70; Plant response rating, Ducksalad [20]: 100; Plant response rating, Sedge, Umbrella [21]: 0
